Data on one compound can be found in patent US11142525B2 (Pfizer Inc., priority 2018, dated 2021).

Assay [1] deals with human full-length recombinant HPK1 (Homo sapiens (Human), UniProt Q92918). Put plainly: HPK1 biochemical enzyme assay, microfluidic mobility shift assay (MSA). The note with it: HPK1 mobility shift assay; read-out: HPK1 Enzyme Assay_Ki.
Assay [2] relates to phospho-SLP-76 (Ser376) in Jurkat cells. In words: Phospho-SLP-76 (Ser376) Homogeneous Time Resolved Fluorescence (HTRF) assay in Jurkat cells. The assay is classed as cell-based. The note with it: Homo sapiens, Phospho-SLP-76 (Ser376) HTRF, anti-CD3 stimulation, read-out: SLP76 Assay_IC50. The method in brief: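 Jurkat cells pre-treated 30 min with compounds (10 μM to 0.1 nM, 11-point, 0.1% DMSO), then stimulated with 200 μg/mL F(ab)2-complexed anti-CD3 (UCHT1) for 15 min at 37 °C. Lysate phospho-SLP-76 detected by HTRF after overnight antibody incubation; IC50 from four-parameter fit.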

The structures appear in SMILES notation. pIC50, pKi: −log10 of the molar value.

Chain of human full-length recombinant HPK1 (Q92918 whole entry): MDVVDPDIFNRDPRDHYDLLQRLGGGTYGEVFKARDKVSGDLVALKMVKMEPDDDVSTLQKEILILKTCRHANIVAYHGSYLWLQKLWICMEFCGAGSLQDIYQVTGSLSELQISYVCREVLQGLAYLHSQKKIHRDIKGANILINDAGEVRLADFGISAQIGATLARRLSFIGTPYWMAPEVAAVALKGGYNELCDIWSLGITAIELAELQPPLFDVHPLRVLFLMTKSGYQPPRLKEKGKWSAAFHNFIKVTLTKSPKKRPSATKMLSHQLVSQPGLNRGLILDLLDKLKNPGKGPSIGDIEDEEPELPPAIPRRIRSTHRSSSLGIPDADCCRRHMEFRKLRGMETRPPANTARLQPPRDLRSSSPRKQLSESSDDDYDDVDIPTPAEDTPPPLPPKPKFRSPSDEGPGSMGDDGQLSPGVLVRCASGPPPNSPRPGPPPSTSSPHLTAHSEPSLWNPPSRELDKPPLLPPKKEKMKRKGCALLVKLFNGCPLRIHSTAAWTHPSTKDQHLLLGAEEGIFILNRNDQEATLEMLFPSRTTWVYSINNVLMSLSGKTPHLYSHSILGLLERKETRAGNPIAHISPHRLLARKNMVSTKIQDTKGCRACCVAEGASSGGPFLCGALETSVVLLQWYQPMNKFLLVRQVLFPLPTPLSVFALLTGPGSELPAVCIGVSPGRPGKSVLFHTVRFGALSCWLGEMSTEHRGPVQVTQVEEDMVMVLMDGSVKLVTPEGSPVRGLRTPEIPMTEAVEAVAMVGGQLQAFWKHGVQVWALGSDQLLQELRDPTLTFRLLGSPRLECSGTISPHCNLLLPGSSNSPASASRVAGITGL

Take `CCc1nnc(-c2cccc(N3Cc4c(cc(N5CCC[C@H]5C)nc4CN)C3=O)n2)n1CC` [Example 185]: the pKi in assay [1] was 9.10. Moreover, the pIC50 in assay [2] was 6.87.
